What all share (assay): whole plant or invertebrate
What all share (type): functional
What all share (settings): Raphanus sativus, Japanese White, 120 h

For assay [1], the system named is Radish.
In assay [2] the test system is Radish. This is another data set of the same source.
For assay [3], the system named is Radish. The source holds these as a separate data set.

For `O=C(/C=C/c1ccccc1[N+](=O)[O-])Nc1ccccc1`, the inhibition at 50 ppm in the assay on Radish [1] amounted to 73.3%. For the same compound, in the assay with Radish [2], the inhibition at 200 ppm came out at 100%. The inhibition at 100 ppm in the assay on Radish [3] worked out at 86.7%.

As for `COc1ccc(/C=C/C(=O)Nc2ccc(C)cc2)cc1`, the inhibition at 50 ppm with Radish [1] worked out at 70%. In the assay on Radish [2], this compound yielded an inhibition at 200 ppm of 100%. The compound also showed an inhibition at 100 ppm with Radish [3] of 93.3%.

Compound `O=C(O)/C=C/c1ccccc1[N+](=O)[O-]` came in with an inhibition at 50 ppm in the assay on Radish [1] of 70%. This compound displayed an inhibition at 200 ppm in the assay on Radish [2] of 100%. Moreover, the inhibition at 100 ppm in the assay with Radish [3] is 86.7%.

For the compound `O=C(/C=C/c1ccccc1[N+](=O)[O-])Nc1ccccc1Cl`, at 50 ppm the inhibition with Radish [1] was 86.7%. In addition, in the assay with Radish [2], 200 ppm produced 100% inhibition. The compound also had an inhibition at 100 ppm in the assay on Radish [3] of 93.3%.

In the assay on Radish [1], `O=C(/C=C/c1cccc([N+](=O)[O-])c1)Nc1ccccc1Cl` showed an inhibition at 50 ppm of 83.3%. Besides, the inhibition at 200 ppm in the assay on Radish [2] was 100%. Further, in the assay with Radish [3], the inhibition at 100 ppm amounted to 93.3%.

Take `O=C(/C=C/c1ccc([N+](=O)[O-])cc1)Nc1ccccc1Cl`: the inhibition at 50 ppm with Radish [1] was 80%. Also, in the assay with Radish [2], 200 ppm produced 100% inhibition. This compound also had an inhibition at 100 ppm with Radish [3] of 86.7%.

`O=C(/C=C/c1cccc(Cl)c1)Nc1ccccc1Cl`: in the assay on Radish [1], the inhibition at 50 ppm came to 33.3%. This compound also came in with an inhibition at 200 ppm in the assay with Radish [2] of 76.7%. The compound also yielded an inhibition at 100 ppm with Radish [3] of 53.3%.

Compound `COc1ccc(/C=C/C(=O)Nc2ccccc2Cl)cc1` registered an inhibition at 50 ppm with Radish [1] of 76.7%. In addition, the inhibition at 200 ppm with Radish [2] came out at 96.7%. The compound further displayed an inhibition at 100 ppm in the assay with Radish [3] of 83.3%.

`O=C(/C=C/c1cccc(O)c1)Nc1ccccc1Cl` displayed an inhibition at 50 ppm with Radish [1] of 56.7%. The same compound gave an inhibition at 200 ppm with Radish [2] of 93.3%. In the assay with Radish [3], this compound showed an inhibition at 100 ppm of 80%.

`O=C(O)/C=C/c1cccc(O)c1` displayed an inhibition at 50 ppm with Radish [1] of 56.7%. The inhibition at 200 ppm with Radish [2] worked out at 100%. Also, the inhibition at 100 ppm in the assay with Radish [3] was 86.7%.

In the assay on Radish [1], `O=C(O)/C=C/c1ccc([N+](=O)[O-])cc1` yielded an inhibition at 50 ppm of 70%. In addition, in the assay with Radish [2], the inhibition at 200 ppm is 96.7%. Besides, 100 ppm produced 93.3% inhibition in the assay with Radish [3].

Turning to `O=C(/C=C/c1cccc(Cl)c1)Nc1ccccc1` [3-CHLORO-CINNAMANILIDE], the inhibition at 50 ppm with Radish [1] was 70%. Also, testing at 200 ppm in the assay with Radish [2] gave an inhibition of 100%. Moreover, in the assay on Radish [3], 100 ppm produced 93.3% inhibition.

`O=C(O)/C=C/c1cccc(Cl)c1` [3-CHLORO-CINNAMIC ACID]: in the assay on Radish [1], the inhibition at 50 ppm worked out at 53.3%. Moreover, the inhibition at 200 ppm with Radish [2] is 93.3%. This compound registered an inhibition at 100 ppm in the assay on Radish [3] of 76.7%.

For `O=C(/C=C/c1cccc(O)c1)Nc1ccccc1` [3-HYDROXY-CINNAMANILIDE], the inhibition at 50 ppm in the assay with Radish [1] stood at 53.3%. In the assay with Radish [2], this compound registered an inhibition at 200 ppm of 100%. In the assay with Radish [3], this compound had an inhibition at 100 ppm of 86.7%.

Consider `O=C(/C=C/c1cccc([N+](=O)[O-])c1)Nc1ccccc1` [3-NITRO-CINNAMANILIDE], for which, in the assay with Radish [1], 50 ppm produced 70% inhibition. The compound also displayed an inhibition at 200 ppm in the assay on Radish [2] of 100%. In the assay on Radish [3], this compound displayed an inhibition at 100 ppm of 73.3%.

Turning to `O=C(O)/C=C/c1cccc([N+](=O)[O-])c1` [3-NITRO-CINNAMIC ACID], in the assay on Radish [1], testing at 50 ppm gave an inhibition of 70.3%. The same compound gave an inhibition at 200 ppm in the assay on Radish [2] of 100%. In the assay with Radish [3], this compound yielded an inhibition at 100 ppm of 80%.

`COc1ccc(/C=C/C(=O)Nc2ccccc2)cc1` [4-METHOXY-CINNAMANILIDE] yielded an inhibition at 50 ppm in the assay on Radish [1] of 53.3%. In the assay on Radish [2], this compound displayed an inhibition at 200 ppm of 93.3%. This compound gave an inhibition at 100 ppm in the assay on Radish [3] of 76.7%.

`COc1ccc(/C=C/C(=O)O)cc1` [4-METHOXYCINNAMIC ACID] displayed an inhibition at 50 ppm in the assay with Radish [1] of 56.7%. Besides, the inhibition at 200 ppm in the assay on Radish [2] was found to be 93.3%. The compound further yielded an inhibition at 100 ppm in the assay on Radish [3] of 66.7%.

In the assay on Radish [1], `Cc1ccc(NC(=O)/C=C/c2ccccc2[N+](=O)[O-])cc1` [4-METHYL-(2'-NITRO)CINNAMANILIDE] came in with an inhibition at 50 ppm of 63.3%. Moreover, the inhibition at 200 ppm with Radish [2] was 93.3%. In the assay on Radish [3], this compound came in with an inhibition at 100 ppm of 80%.

`Cc1ccc(NC(=O)/C=C/c2cccc(Cl)c2)cc1` [4-METHYL-(3'-CHLORO)CINNAMANILIDE] displayed an inhibition at 50 ppm in the assay on Radish [1] of 70%. Further, in the assay with Radish [2], the inhibition at 200 ppm stood at 93.3%. In the assay with Radish [3], this compound gave an inhibition at 100 ppm of 83.3%.

Take `Cc1ccc(NC(=O)/C=C/c2cccc([N+](=O)[O-])c2)cc1` [4-METHYL-(3'-NITRO)CINNAMANILIDE]: the inhibition at 50 ppm with Radish [1] was determined as 73.3%. The compound further showed an inhibition at 200 ppm in the assay with Radish [2] of 96.7%. The compound further registered an inhibition at 100 ppm in the assay on Radish [3] of 86.7%.

In the assay with Radish [1], `O=C(/C=C/c1ccccc1[N+](=O)[O-])Nc1ccc([N+](=O)[O-])cc1` [4-NITRO-(2'-NITRO)CINNAMANILIDE] displayed an inhibition at 50 ppm of 73.3%. Also, the inhibition at 200 ppm in the assay with Radish [2] came to 96.7%. The inhibition at 100 ppm with Radish [3] worked out at 86.7%.

For `O=C(/C=C/c1ccc([N+](=O)[O-])cc1)Nc1ccc([N+](=O)[O-])cc1` [4-NITRO-(4'-NITRO)CINNAMANILIDE], the inhibition at 50 ppm with Radish [1] was found to be 60%. The compound further showed an inhibition at 200 ppm in the assay with Radish [2] of 93.3%. The compound further showed an inhibition at 100 ppm in the assay on Radish [3] of 66.7%.

`O=C(/C=C/c1ccc([N+](=O)[O-])cc1)Nc1ccccc1` [4-NITRO-CINNAMANILIDE] showed an inhibition at 50 ppm in the assay on Radish [1] of 83.3%. In the assay on Radish [2], this compound registered an inhibition at 200 ppm of 100%. The same compound came in with an inhibition at 100 ppm in the assay with Radish [3] of 90%.

Consider `O=C(O)/C=C/c1ccc(O)cc1` [COUMARIC ACID], for which the inhibition at 50 ppm in the assay on Radish [1] was 53.3%. The compound also returned an inhibition at 200 ppm in the assay with Radish [2] of 100%. Also, the inhibition at 100 ppm with Radish [3] turned out to be 73.3%.

`CSc1nnc(C(C)(C)C)c(=O)n1N` [METRIBUZIN]: at 50 ppm the inhibition with Radish [1] was 80%. Also, at 200 ppm the inhibition with Radish [2] was 100%. Moreover, at 100 ppm the inhibition in the assay with Radish [3] was 93.3%.

What is called inhibition is the relative decrease from the control value, in per cent. High values mean a strong effect, low ones a weak effect.

For the origin of these results see ChEMBL document CHEMBL3046509, “Synthesis and structure--activity relationships of substituted cinnamic acids and amide analogues: a new class of herbicides” (2009).
